From patent EP2535710A1, “Method for determining the immune toxicity of a compound in vitro” (Rijksinstituut Voor Volksgezondheid En Milieu, priority 2011, dated 2012)

What was measured:
Matrin 3 = test: Western blot analysis of TBTO-treated and control cell extracts; assay type: cell-based, Murine; settings: Immunoblot, TBTO-treated cells versus control extract; EL4 cells, 0.5 µM TBTO, 6 hr; Fig. 1 b
Experimental: (§1) Murine EL4 cells were cultured as described before.
(§2) After exposure, cell suspensions were centrifuged at 1200 rpm for 10 min at 4 °C and the pellets were washed in 20 mL phosphate-buffered saline (PBS, pH 7.2) and centrifuged again. This procedure was repeated twice. The obtained cell pellet of each sample or control was then suspended in 5 mL of phosphoprotein lysis buffer prepared following the instructions of Phosphoprotein Purification Kit (Qiagen). This volume of the lysis buffer contained, in addition to the detergent CHAPS and Benzonase (10 µL), one tablet of protease inhibitor and Phosphatase Inhibitor Cocktail 1 (10 µL). The cell suspension was incubated on ice for 30 min and vortexed briefly and gently every 10 min. After that, the cell lysate was centrifuged at 10.000 rpm for 30 min at 4 °C. The supernatant was then taken and protein concentration determined according to Bradford. A total amount of 2.5 mg protein, at the concentration of 0.1 mg/mL, was loaded on the affinity column, which was pre-equilibrated with lysis buffer as recommended by the manufacturer. The chromatography was performed at room temperature. […] These enriched fractions were combined and the protein concentration was determined. […]

RPS6KB1 (Thr444/Ser447) = test: as above; assay type: cell-based, Murine; settings: treated cells compared to control extract, EL4 cells, 0.5 µM TBTO, 6 hr, Figure 1a
Experimental: as §1, §2

cells = settings: TBTO concentrations higher than 1µM and incubation times longer than 6h; refs [10, 21]; cited from earlier work
MAPK1 = test: Phosphoproteome analysis of TBTO-treated cells (phosphoprotein and TiO2 phosphopeptide enrichment, nano-LC/MS/MS); assay type: cell-based, Murine; settings: whole protein; abundantly present in control cells; EL4 cells, 0.5 µM TBTO, 6 hr
Experimental: as §1, §2

Murine EL4 cells = settings: trypan blue dye exclusion, 0.5 µM TBTO, 37 °C for 6 hr, range in all experiments
Experimental: Murine EL4 cells were cultured as described before [10]. Each treated sample or control contained 5×10^7 cells in a volume of 20 mL. A 1 mM TBTO stock solution was prepared in ethanol and 10 µl of this solution was added to each one of the cell suspension samples so that the final concentration of TBTO was 0.5 µM, whereas 10 µl of ethanol without TBTO was added to the control cells. Two independent replicate experiments for both treated sample and control were performed. Subsequently, cells were incubated at 37 °C for 6 hr.

SMILES: CCC[CH2][Sn]([CH2]CCC)([CH2]CCC)[O][Sn]([CH2]CCC)([CH2]CCC)[CH2]CCC [TBTO, tributyltin oxide]
- band corresponding to Matrin 3 (ca. 125-130 kDa) (Matrin 3): not detectable
- intensity signal of the band corresponding to Thr444/Ser447 (RPS6KB1 (Thr444/Ser447)): decrease in the intensity signal
- apoptosis of cells (cells): caused apoptosis of cells
- detection of MAPK1 phosphoprotein in TBTO-treated cells (MAPK1): not detected
- Cell viability (Murine EL4 cells): 85-90%
